Among the data in patent publication US20210130308A1, “MODULATORS OF EUKARYOTIC INITIATION FACTOR 2” (Denali Therapeutics Inc., priority 2018, published 2021) are IC50 values, retold here.

A word on the IC50: it is the concentration at which inhibition is half-maximal.

In the first test the test system is ATF4 translation (ISR pathway activation). The experiment in a line: ATF4 Nano Luciferase reporter integrated stress response (ISR) assay in H4 ATF4-NLuc (clone 17) cells. Type of test: cell-based, human. The note with it: H4 ATF4-NLuc (clone 17) cells; compounds 30 minutes at 37 degree Celsius, then 50 um sodium arsenite for 6 additional hours; luminescence readout; read-out: IC50. From the text:
Cellular stress leads to activation of the integrated stress response pathway through one of four eukaryotic initiation factor 2α kinases and halts global translation, while allowing for the translation of select transcripts like ATF4 (activating transcription factor 4) that are important for the response to cellular stress. During normal conditions, small open reading frames (ORFs) in the 5′ UTR of ATF4 occupy the ribosome and prevent translation of the coding sequence of ATF4. During stress conditions however, the ribosome scans past these upstream ORFs and preferentially begins translation at the coding sequence of ATF4. In this way, the translation, and thus protein level of ATF4 is a readout of ISR pathway activation. Thus, a fusion of the uORFs and the beginning of the coding sequence of ATF to a common cellular reporter like nano-luciferase allows for a sensitive and high-throughput readout of ISR pathway activity.
Compounds as provided herein were tested in the following assay. The ATF4 Nano Luciferase reporter was constructed by fusing the human full length 5′ untranslated region (5′-UTR) and a small portion of the coding sequence of the ATF4 gene upstream of the Nano Luciferase (NLuc) coding sequence lacking it's start codon. Specifically, nucleotides +1 through +364 (relative to the transcriptional start site) of ATF4 transcript variant 2 (NCBI NM_182810.2) flanked 5′ by EcoRI and 3′ by BamHI restriction enzyme sites were synthesized and cloned into the EcoRI/BamHI cloning sites of pLVX-EF1a-IRES-Puro lentivirus vector (Clontech). […]. H4 cells were selected with […] Puromycin, and clonal cell lines generated by limiting dilution. We utilized this cell line to generate an integrated stress response (ISR) assay to evaluate the activity of ISR pathway inhibitors via luminescence readout. The H4 ATF4-NLuc (clone 17) cell line is plated at a density of […] in 96-well or 384-well respectively in DMEM+10% fetal bovine serum. 24-hours later test compounds diluted in dimethyl sulfoxide (DMSO) are added for 30 minutes at 37 degree Celsius, followed by ISR pathway activation with 50 um sodium arsenite aqueous solution for 6 additional hours. Nano Glo luciferase reagent (N1150, Promega) is added according to manufacturer instructions and the luminescence signal (corresponding to the level of ATF4 translation and thus ISR pathway activation) is read with a standard plate reader with luminescence detection capabilities.
In the table below, activity of the tested compounds is provided in Table 3 as follows: +++=IC50<1 μM; ++=IC50 1-10 μM; +=IC50>10 μM.
For orientation: A reporter such as luciferase makes a cellular process visible.
In the case of `O=C(COC1CC(F)C1)NC12CC(NC(=O)c3ccc4cc(C(F)(F)F)ccc4n3)(C1)C2` (stereo not drawn) [Example 54, N-[1-[[2-(3-cis-fluorocyclobutoxy)acetyl]amino]-3-bicyclo[1.1.1]pentanyl]-6-(trifluoromethyl)quinoline-2-carboxamide], the IC50 was less than 1 µM.

The same test, now with this note: Homo sapiens, 0.5 h.
The molecule `O=C(COc1ccc(Cl)c(F)c1)NC1C[C@H]2COC[C@@H](C1)N2c1cnn(C2CC(OC(F)(F)F)C2)c1` (stereo partly drawn) [Example 50, 2-(4-chloro-3-fluoro-phenoxy)-N-[(1S,5R,7r)-9-[1-[3-cis-(trifluoromethoxy)cyclobutyl]pyrazol-4-yl]-3-oxa-9-azabicyclo[3.3.1]nonan-7-yl]acetamide] showed an IC50 of less than 1 µM.

The molecule `O=C(COc1ccc(Cl)cc1)N[C@H]1C[C@@H]2CN(C(=O)COC3CC(OC(F)(F)F)C3)C[C@@H]2C1` (stereo partly drawn) [Example 59] returned an IC50 of less than 1 µM.

For the molecule `O=C(COc1ccc(Cl)cc1)NC1CC2CN(c3cnn([C@H]4C[C@@H](OC(F)(F)F)C4)c3)CC2C1` (stereo partly drawn) [Example 61, 2-(4-chlorophenoxy)-N-(2-(1-(3-cis-(trifluoromethoxy)cyclobutyl)-1H-pyrazol-4-yl)octahydrocyclopenta[c]pyrrol-5-yl)acetamide], the IC50 is greater than 10 µM.

`O=C(COC1CCN(CC(F)(F)F)C1)NC12CC(NC(=O)c3ccc4cc(C(F)(F)F)ccc4n3)(C1)C2` (stereo not drawn) [Example 73] came in with an IC50 of less than 1 µM.

The test is the same for the next values; noted with them: Homo sapiens, 0.5 h; H4 ATF4-NLuc (clone 17) cells; compounds 30 minutes at 37 degree Celsius, then 50 um sodium arsenite for 6 additional hours; luminescence readout; read-out: IC50.
`O=C(COc1ccc(Cl)c(F)c1)NC1CCN(CCOC2CC(OC(F)(F)F)C2)CC1(F)F` (stereo not drawn) [Example 47, 2-(4-chloro-3-fluoro-phenoxy)-N-[3,3-difluoro-1-[2-[3-cis-(trifluoromethoxy)cyclobutoxy]ethyl]-4-piperidyl]acetamide]: the half-inhibitory concentration (IC50) is less than 1 µM.

For `CO[C@H]1CN(CCOC2CC(OC(F)(F)F)C2)CCC1NC(=O)COc1ccc(Cl)c(F)c1` (stereo partly drawn) [Example 48, 2-(4-chloro-3-fluoro-phenoxy)-N-[cis-3-methoxy-1-[2-[3-cis-(trifluoromethoxy)cyclobutoxy]ethyl]-4-piperidyl]acetamide], the IC50 was less than 1 µM.

As to `CO[C@@H]1CN(CCOC2CC(OC(F)(F)F)C2)CCC1NC(=O)COc1ccc(Cl)c(F)c1` (stereo partly drawn) [Example 49, 2-(4-chloro-3-fluoro-phenoxy)-N-[trans-3-methoxy-1-[2-[3-cis-(trifluoromethoxy)cyclobutoxy]ethyl]-4-piperidyl]acetamide], the IC50 is less than 1 µM.

Turning to `O=C(COC1CC(OC(F)(F)F)C1)NC12CC(NC(=O)c3ccc4cc(C(F)(F)F)ccc4n3)(C1)C2` (stereo not drawn) [Example 51, N-[1-[[2-[3-cis-(trifluoromethoxy)cyclobutoxy]acetyl]amino]-3-bicyclo[1.1.1]pentanyl]-6-(trifluoromethyl)quinoline-2-carboxamide], the IC50 is less than 1 µM.

Take `O=C(COC1CC(OC(F)(F)F)C1)NC12CC(NC(=O)c3nc4cc(Cl)ccc4s3)(C1)C2` (stereo not drawn) [Example 52, 5-chloro-N-[1-[[2-[3-cis-(trifluoromethoxy)cyclobutoxy]acetyl]amino]-3-bicyclo[1.1.1]pentanyl]-1,3-benzothiazole-2-carboxamide]: the IC50 was less than 1 µM.

As to `O=C(COC1CC(F)C1)NC12CC(NC(=O)c3ccc4cc(C(F)(F)F)ccc4n3)(C1)C2` (stereo not drawn) [Example 53, N-[1-[[2-(3-trans-fluorocyclobutoxy)acetyl]amino]-3-bicyclo[1.1.1]pentanyl]-6-(trifluoromethyl)quinoline-2-carboxamide], the IC50 is less than 1 µM.

Regarding `O=C(COCC1CC1(F)F)NC12CC(NC(=O)c3ccc4cc(C(F)(F)F)ccc4n3)(C1)C2` (stereo not drawn) [Example 55, N-[1-[[2-[(2,2-difluorocyclopropyl)methoxy]acetyl]amino]-3-bicyclo[1.1.1]pentanyl]-6-(trifluoromethyl)quinoline-2-carboxamide], the IC50 is less than 1 µM.

As for `O=C(COc1ccc(Cl)c(F)c1)NC1CCN(CCOC2CC(OC(F)(F)F)C2)C(=O)C1` (stereo not drawn) [Example 56, 2-(4-chloro-3-fluorophenoxy)-N-(2-oxo-1-(2-(3-cis-(trifluoromethoxy)cyclobutoxy)ethyl)piperidin-4-yl)acetamide], the IC50 is less than 1 µM.

On to `O=C(COc1ccc(Cl)c(F)c1)NC1CCN(CC(F)(F)COC2CC(OC(F)(F)F)C2)CC1` (stereo not drawn) [Example 57, 2-(4-chloro-3-fluorophenoxy)-N-(1-(2,2-difluoro-3-(3-cis-(trifluoromethoxy)cyclobutoxy)propyl)piperidin-4-yl)acetamide], for which the IC50 was less than 1 µM.

Turning to `O=C(COc1ccc(Cl)c(F)c1)NCC1CCN(C(=O)COC2CC(OC(F)(F)F)C2)C1` (stereo not drawn) [Example 60, 2-(4-chloro-3-fluorophenoxy)-N-((1-(2-(3-cis-(trifluoromethoxy)cyclobutoxy)acetyl)pyrrolidin-3-yl)methyl)acetamide], the IC50 was less than 1 µM.

In the case of `O=C(COc1ccc(Cl)c(F)c1)NC1CCN(C(=O)COC2CC(OC(F)(F)F)C2)CC1` (stereo not drawn) [Example 62, 2-(4-chloro-3-fluoro-phenoxy)-N-[1-[2-[3-cis-(trifluoromethoxy)cyclobutoxy]acetyl]-4-piperidyl]acetamide], the IC50 is less than 1 µM.

For `O=C(NC1CCN(C(=O)COC2CC(OC(F)(F)F)C2)CC1)c1ccc2cc(Cl)ccc2n1` (stereo not drawn) [Example 63, 6-chloro-N-[1-[2-[3-cis-(trifluoromethoxy)cyclobutoxy]acetyl]-4-piperidyl]quinoline-2-carboxamide], the IC50 is less than 1 µM.

In the case of `O=C(COC1CC(OC(F)(F)F)C1)NC12CC(NC(=O)c3ccc4cc(Cl)ccc4n3)(C1)C2` (stereo not drawn) [Example 64, 6-chloro-N-[1-[[2-[3-cis-(trifluoromethoxy)cyclobutoxy]acetyl]amino]-3-bicyclo[1.1.1]pentanyl]quinoline-2-carboxamide], the IC50 was less than 1 µM.

On to `O=C(COC1CCC1)NC12CC(NC(=O)c3ccc4cc(Cl)ccc4n3)(C1)C2` [Example 65, 6-chloro-N-[1-[[2-(cyclobutoxy)acetyl]amino]-3-bicyclo[1.1.1]pentanyl]quinoline-2-carboxamide], for which the IC50 was less than 1 µM.

Consider `O=C(COC1CC(OC(F)(F)F)C1)NC12CC(NC(=O)c3ccc4cc(F)ccc4n3)(C1)C2` (stereo not drawn) [Example 66, 6-fluoro-N-[1-[[2-[3-cis-(trifluoromethoxy)cyclobutoxy]acetyl]amino]-3-bicyclo[1.1.1]pentanyl]quinoline-2-carboxamide], for which the IC50 was less than 1 µM.

For the molecule `O=C(COC1CC(C(F)(F)F)C1)NC12CC(NC(=O)c3ccc4cc(C(F)(F)F)ccc4n3)(C1)C2` (stereo not drawn) [Example 67, 6-(trifluoromethyl)-N-(3-(2-(3-(trifluoromethyl)cyclobutoxy)acetamido)bicyclo[1.1.1]pentan-1-yl)quinoline-2-carboxamide], the IC50 is less than 1 µM.

For the molecule `O=C(COC1CC(OC(F)(F)F)C1)NC12CC(NC(=O)c3ccc4c(F)c(F)ccc4n3)(C1)C2` (stereo not drawn) [Example 68, 5,6-difluoro-N-(3-(2-(3-cis-(trifluoromethoxy)cyclobutoxy)acetamido)bicyclo[1.1.1]pentan-1-yl)quinoline-2-carboxamide], the IC50 was less than 1 µM.

`O=C(COC1CC(OC(F)(F)F)C1)NC12CC(NC(=O)c3ccc4cc(F)c(F)cc4n3)(C1)C2` (stereo not drawn) [Example 69, 6,7-difluoro-N-(3-(2-(3-cis-(trifluoromethoxy)cyclobutoxy)acetamido)bicyclo[1.1.1]pentan-1-yl)quinoline-2-carboxamide]: the IC50 was less than 1 µM.

On to `CC(C)OC1CC(OCC(=O)NC23CC(NC(=O)c4ccc5cc(C(F)(F)F)ccc5n4)(C2)C3)C1` (stereo not drawn) [Example 70, N-(3-(2-(3-cis-isopropoxycyclobutoxy)acetamido)bicyclo[1.1.1]pentan-1-yl)-6-(trifluoromethyl)quinoline-2-carboxamide], for which the 50% inhibitory concentration (IC50) was less than 1 µM.

For `CCOC1CC(OCC(=O)NC23CC(NC(=O)c4ccc5cc(C(F)(F)F)ccc5n4)(C2)C3)C1` (stereo not drawn) [Example 71, N-(3-(2-(3-cis-ethoxycyclobutoxy)acetamido)bicyclo[1.1.1]pentan-1-yl)-6-(trifluoromethyl)quinoline-2-carboxamide], the IC50 is less than 1 µM.

For `O=C(COc1ccc(C(F)(F)F)cc1)NC12CC(N3CCN(C4CC(OC(F)(F)F)C4)C3=O)(C1)C2` (stereo not drawn) [Example 74], the IC50 was less than 1 µM.

For `O=C(COC1CC(CC(F)(F)F)C1)NC12CC(NC(=O)c3ccc4cc(C(F)(F)F)ccc4n3)(C1)C2` (stereo not drawn) [Example 75], the IC50 was less than 1 µM.
